Test results as given in PubChem BioAssay (NCI).
“And” between values parts separate entries of the source, which are not always exact repeats. Identical values can stand only once.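 Test compounds were applied to cells in 96-well plates for 48 hours at 5 doses. Here, GI50 denotes the concentration required for 50% inhibition of growth. Definition used: TGI = concentration required for complete inhibition of growth.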

What was measured:
Test in all cases: NCI-60 cell line screen, 48 h
A498 renal = system: A498 renal
A549 NSCLC = system: A549 NSCLC
BT-549 breast = system: BT-549 breast
CAKI-1 renal = system: CAKI-1 renal
EKVX NSCLC = system: EKVX NSCLC
HCC-2998 colon = system: HCC-2998 colon
HCT-116 colon = system: HCT-116 colon
RXF 393 renal = system: RXF 393 renal
SK-MEL-5 melanoma = system: SK-MEL-5 melanoma
SN12C renal = system: SN12C renal

Row | SMILES | GI50 (A498 renal) | TGI (A498 renal) | GI50 (A549 NSCLC) | TGI (A549 NSCLC) | GI50 (BT-549 breast) | TGI (BT-549 breast) | GI50 (CAKI-1 renal) | TGI (CAKI-1 renal) | GI50 (EKVX NSCLC) | TGI (EKVX NSCLC) | GI50 (HCC-2998 colon) | TGI (HCC-2998 colon) | GI50 (HCT-116 colon) | TGI (HCT-116 colon) | GI50 (RXF 393 renal) | TGI (RXF 393 renal) | GI50 (SK-MEL-5 melanoma) | TGI (SK-MEL-5 melanoma) | GI50 (SN12C renal) | TGI (SN12C renal)
1 | CNCCNc1c2c(c(NCCNC)c3c(CN(C)C)c[nH]c13)C(=O)c1ccccc1C2=O | 1.41 µM | 6.27 µM | 3.42 µM | 11.2 µM | 6.04 µM | 14.4 µM | 4.71 µM | 16.8 µM | 2.13 µM | 5 µM | 1.36 µM | 5.37 µM | 1.55 µM | 8.29 µM | 2.5 µM | 11 µM | 2.98 µM | 14.2 µM | 0.788 µM | 7.47 µM
2 | Cc1ccc(Cl)cc1Nc1nc(C(F)(F)F)ccc1C(=O)N1CCN(c2ccc(F)cc2)CC1 | 6.03 µM | 20.2 µM | 15.3 µM | 37.1 µM | 12.8 µM | 26.3 µM | 1.53 µM | 14.2 µM | 12.8 µM | 45.4 µM | 12.7 µM | 26 µM | 11.9 µM | 26.3 µM | 11.2 µM | 29.9 µM | 12 µM | 24.3 µM | 15 µM | 28.6 µM
3 | O=c1n(CC2CO2)c(=O)n(CC2CO2)c(=O)n1CC1CO1 (stereo not given) | 12.2 µM | 83.9 µM and 26.5 µM | 2.04 µM | 134 µM and > 100 µM | 13.6 µM | 67 µM and > 100 µM | 0.81 µM | 52.1 µM and 64.9 µM | – | 175 µM | 11.4 µM and 21.2 µM | 27 µM and 108 µM and > 100 µM | 12.3 µM and 10.2 µM | 43.9 µM and 88.6 µM and > 100 µM | 4.01 µM | 109 µM and 23.8 µM | 16.8 µM and 25.3 µM and 9.6 µM | 37.3 µM and 79.6 µM and 75.6 µM | 17.7 µM and 3.55 µM | 52 µM and 88.1 µM and > 100 µM
4 | CCN1CCN(c2ccc(Nc3cc(N(C)C(=O)Nc4c(Cl)c(OC)cc(OC)c4Cl)ncn3)cc2)CC1 | < 0.0113 µM | 0.062 µM | 3.13 µM | 12.1 µM | 1.04 µM | 21.1 µM | 4.19 µM | > 48.2 µM | – | – | 8.04 µM | 32.5 µM | 1.73 µM | 5.2 µM | 1.13 µM | 2.72 µM | 4.27 µM | 8.47 µM | 2.62 µM | 11 µM
5 | C[C@H]1c2cccc(O)c2C(O)=C2C(=O)[C@]3(O)C(O)=C(C(N)=O)C(=O)[C@@H](N(C)C)[C@@H]3[C@@H](O)[C@@H]21 | 2.86 µM | 10.4 µM | 3.22 µM | 13.2 µM | 3.12 µM | 9.88 µM | 2.08 µM | 8.67 µM | 3.31 µM | 15.5 µM | 2.97 µM | 12.7 µM | 2.89 µM | 10.5 µM | 3.79 µM | 33.9 µM | 1.9 µM | 4.12 µM | 3.06 µM | 14.5 µM
6 | CCC[CH2][Sn]([CH2]CCC)([CH2]CCC)[O]C(=O)CC | 0.12 µM | 0.256 µM | 0.172 µM | 0.342 µM | 0.15 µM | 0.344 µM | 0.0611 µM | 0.214 µM | 0.121 µM | 0.335 µM | 0.171 µM | 0.316 µM | 0.138 µM | 0.294 µM | 0.14 µM | 0.285 µM | 0.139 µM | 0.27 µM | 0.158 µM | 0.365 µM
7 | CC[C@]12C=CCN3CC[C@@]4(c5ccc(OC)cc5N(C)[C@H]4[C@@](O)(C(=O)OC)[C@@H]1OC(=O)CCC[P+](c1ccccc1)(c1ccccc1)c1ccccc1)[C@@H]32 | 1.71 µM and 1.97 µM | 4.87 µM and 5.7 µM | 1.5 µM and 1.11 µM | 36.2 µM and 11.4 µM | 0.284 µM and 0.234 µM | 1.86 µM and 1.6 µM | 4.67 µM and 2.8 µM | 12.3 µM and 10.4 µM | 1.17 µM and 2.73 µM | 10 µM and 18.2 µM | 0.449 µM and 0.425 µM | 2.67 µM and 1.64 µM | 0.727 µM and 0.627 µM | 5.59 µM and 10.4 µM | 0.736 µM and 1.53 µM | 2.94 µM and 4.34 µM | 0.817 µM and 1.65 µM | 1.53 µM and 3.02 µM | 0.719 µM and 0.491 µM | 5.45 µM and 6.66 µM
8 | Cc1c2cccnc2c(C)c2c1c1cc(CO)ccc1n2C | 0.104 µM | 0.243 µM | 2.65 µM | 11.7 µM | 3.42 µM | 20.1 µM | 2.06 µM | 10.5 µM | 1.4 µM | 9.86 µM | 3.38 µM | 13.9 µM | 0.42 µM | 3.26 µM | 1.93 µM | 5.5 µM | 1.75 µM | 5.12 µM | 2.08 µM | 40.3 µM
9 | COc1cc(Nc2cn[nH]c2-c2ccc(Cl)cc2)cc(OC)c1OC | 4.58 µM | 23.8 µM | 5.96 µM | > 100 µM | 3.37 µM | 19.2 µM | 2.34 µM | 26.2 µM | 5.21 µM | 52.7 µM | 5.46 µM | 23.4 µM | 3.73 µM | 13.7 µM | 10.4 µM | > 64.1 µM | 3.58 µM | 14.6 µM | 8.68 µM | > 100 µM
10 | CNCCCn1cc(C2=C(c3cn(C)c4ccccc34)C(=O)NC2=O)c2ccccc21 | 4.29 µM | 8.35 µM | 4.09 µM | 10.8 µM | 4.81 µM | 8.83 µM | 4.13 µM | 13.2 µM | – | – | 5.13 µM | 11.7 µM | 3.17 µM | 12.3 µM | 3.48 µM | 6.95 µM | 3.77 µM | 7.3 µM | 4.86 µM | 18.4 µM
11 | O=C1NC(=Nc2ccccc2)S/C1=C\c1ccc2ncccc2c1 | – | > 18.4 µM | > 7.12 µM | > 25 µM | > 25 µM | > 25 µM | > 25 µM | > 25 µM | – | – | > 25 µM | > 25 µM | 1.14 µM | > 25 µM | > 25 µM | > 25 µM | > 25 µM | > 25 µM | > 25 µM | > 25 µM
12 | O=C(CCCn1ccnc1[N+](=O)[O-])NCCn1cncc1[N+](=O)[O-] | – | > 100 µM | – | > 100 µM | – | > 100 µM | – | > 100 µM | – | > 100 µM | – | – | – | > 100 µM | – | > 100 µM | – | > 100 µM | – | > 100 µM
13 | Cc1nnc(S(=O)(=O)c2ccc(N=Nc3c(N)nc(N)nc3N)cc2)s1 | – | > 100 µM | – | > 100 µM | – | > 100 µM | – | > 100 µM | – | > 100 µM | – | – | – | > 100 µM | – | > 100 µM | – | > 100 µM | – | > 100 µM
